Patent US20160022683A1, “COMBINATIONS OF BRUTON'S TYROSINE KINASE INHIBITORS AND CYP3A4 INHIBITORS” (PHARMACYCLICS LLC, priority 2013, published 2016)
Several values for one entry are separate records, joined by “and”; a condition that tells them apart may be missing. Equal values may be shown once. Read-outs that look alike come from different tables or passages of the source.

Assays:
clinical [1] = settings: human, oral, 560 mg
[2] = for DN*AUC0-24 / DN*AUClast / DN*Cmax / DN* AUC∞: dose normalized
clinical [3] = settings: male, human, plasma, oral, 120 mg
[4] = healthy subjects
clinical [5] = settings: human, in vivo, oral, spread in brackets; for AUC(0-inf): AUCinf
[6] = Ibrutinib in plasma, Day 1, 120 mg Ibrutinib alone, geom. mean
[7] = Ibrutinib in plasma, Day 1, 120 mg Ibrutinib alone, mean
[8] = Ibrutinib in plasma, Day 1, 120 mg Ibrutinib alone, median
[9] = Ibrutinib in plasma, Day 1, 120 mg Ibrutinib alone, n=12, geom. mean
[10] = Ibrutinib in plasma, Day 1, 120 mg Ibrutinib alone, n=12, mean
[11] = Ibrutinib in plasma, Day 1, 120 mg Ibrutinib alone, not dose normalized, mean
[12] = Ibrutinib in plasma, Day 7, 40 mg Ibrutinib + ketoconazole, geom. mean
[13] = Ibrutinib in plasma, Day 7, 40 mg Ibrutinib + ketoconazole, mean
[14] = Ibrutinib in plasma, Day 7, 40 mg Ibrutinib + ketoconazole, median
[15] = 560 mg, Ibrutinib 560 mg alone, fasted, n=8
[16] = 560 mg, Ibrutinib 560 mg alone, fed, n=8
[17] = Ibrutinib 140 mg + grapefruit juice, fed, n=8
[18] = PCI-45227 in plasma, Day 1, 120 mg Ibrutinib alone, geom. mean
[19] = PCI-45227 in plasma, Day 1, 120 mg Ibrutinib alone, mean
[20] = PCI-45227 in plasma, Day 1, 120 mg Ibrutinib alone, median
[21] = PCI-45227 in plasma, Day 1, 120 mg Ibrutinib alone, not dose normalized, mean
[22] = PCI-45227 in plasma, Day 7, 40 mg Ibrutinib + ketoconazole, geom. mean
[23] = PCI-45227 in plasma, Day 7, 40 mg Ibrutinib + ketoconazole, mean
[24] = PCI-45227 in plasma, Day 7, 40 mg Ibrutinib + ketoconazole, median

For `C=CC(=O)N1CCC[C@@H](n2nc(-c3ccc(Oc4ccccc4)cc3)c3c(N)ncnc32)C1` [Ibrutinib, 1-((R)-3-(4-amino-3-(4-phenoxyphenyl)-1H-pyrazolo[3,4-d]pyrimidin-1-yl)-piperidin-1-yl)prop-2-en-1-one], the AUC(0-t) (clinical [1]; blood) was 259 ng·h/mL, the Cmax (clinical [1]; blood) was 42 ng/mL and the AUC(0-inf) (clinical [1]; in vivo) was 397 ng·h/mL. For the same compound, the “DN*AUC0-24” value [2, 6] was 18.7 ng·h/mL, the “DN*AUClast” value [2, 6] was 20.4 ng·h/mL and the “DN*Cmax” value [2, 6] was 3.33 ng/mL. The “DN*AUC0-24” value [2, 7] was 21.3 ng·h/mL, the “DN*AUClast” value [2, 7] was 23.8 ng·h/mL and the “DN*Cmax” value [2, 7] was 3.92 ng/mL. For the same compound, the “DN*AUC0-24” value [2, 8] was 18.5 ng·h/mL, the “DN*AUClast” value [2, 8] was 19.2 ng·h/mL and the “DN*Cmax” value [2, 8] was 3.57 ng/mL. The “DN* AUC∞” value [2, 9] was 23.7 ng·h/mL, the “DN* AUC∞” value [2, 10] was 28.1 ng·h/mL and the tlast [2, 6] was 30.93 h. For the same compound, the tlast [2, 7] was 34.00 h, the tlast [2, 8] was 24.01 h and the “AUMC∞” value [2, 9] was 576 h · h · ng/mL. For the same compound, the MRT [2, 9] was 8.11 h, the “AUMC∞” value [2, 10] was 857 h · h · ng/mL and the MRT [2, 10] was 8.93 h. The “AUMC∞” value ([2]; Ibrutinib in plasma, Day 1, 120 mg Ibrutinib alone, n=12, median) was 693 h · h · ng/mL, the AUC0-24 [2, 11] was 63.8 ng·h/mL and the Cmax [2, 11] was 11.8 ng/mL. For the same compound, the AUC0-24 [2, 12] was 464 ng·h/mL, the AUClast [2, 12] was 488 ng·h/mL and the “AUC∞” value [2, 12] was 491 ng·h/mL. The “AUMC∞” value [2, 12] was 3235 h · h · ng/mL, the Cmax [2, 12] was 95.2 ng/mL and the MRT [2, 12] was 6.6 h. It also gave a tlast [2, 12] of 40.51 h, an AUC0-24 [2, 13] of 510 ng·h/mL and an AUClast [2, 13] of 533 ng·h/mL. For the same compound, the “AUC∞” value [2, 13] was 536 ng·h/mL, the “AUMC∞” value [2, 13] was 3504 h · h · ng/mL and the Cmax [2, 13] was 108 ng/mL. The MRT [2, 13] was 6.8 h, the tlast [2, 13] was 42.68 h and the AUClast [2, 14] was 559 ng·h/mL. The “AUMC∞” value [2, 14] was 3635 h · h · ng/mL, the tlast [2, 14] was 48.00 h and the “Ibrutinib systemic exposure when dosed concomitantly with ketoconazole” value ([2]; healthy subjects) was “significantly affected”. The AUC(0-inf) (clinical [3]) was 22.4 ng·h/mL, the MRT (clinical [3]) was 9.13 h and the “Ibrutinib systemic exposure when dosed concomitantly with rifampin” value [4] was “significantly affected”. For the same compound, the AUC(0-t) (clinical [5]; 560 mg, AUC0-24 h, Ibrutinib 560 mg alone, fasted, n=8) was 229 ng·h/mL, the AUC(0-t) (clinical [5]; 560 mg, AUC0-24 h, Ibrutinib 560 mg alone, fed, n=7) was 544 ng·h/mL and the AUC(0-inf) (clinical [5]; [15]) was 368 ng·h/mL. It also gave an AUC(0-inf) (clinical [5]; [16]) of 659 ng·h/mL, an AUC(0-t) (clinical [5]; 560 mg, AUClast, Ibrutinib 560 mg alone, fasted, n=8) of 289 ng·h/mL and an AUC(0-t) (clinical [5]; 560 mg, AUClast, Ibrutinib 560 mg alone, fed, n=8) of 606 ng·h/mL. The Cmax (clinical [5]; [15]) was 245 ng/mL, the Cmax (clinical [5]; [16]) was 128 ng/mL and the AUC(0-t) (clinical [5]; AUC0-24 h, Ibrutinib 140 mg + grapefruit juice, fed, n=7) was 339 ng·h/mL. It also gave an AUC(0-inf) (clinical [5]; [17]) of 334 ng·h/mL, an AUC(0-t) (clinical [5]; AUClast, Ibrutinib 140 mg + grapefruit juice, fed, n=8) of 325 ng·h/mL and a Cmax (clinical [5]; [17]) of 125 ng/mL.
For `Nc1ncnc2c1c(-c1ccc(Oc3ccccc3)cc1)nn2[C@@H]1CCCN(C(=O)C(O)CO)C1` (some centres unmarked) [PCI-45227], the “DN* AUC∞” value [2, 18] was 98.2 ng·h/mL, the “DN*AUC0-24” value [2, 18] was 76.6 ng·h/mL and the “DN*AUClast” value [2, 18] was 96.4 ng·h/mL. For the same compound, the “DN*Cmax” value [2, 18] was 8.81 ng/mL, the “DN* AUC∞” value [2, 19] was 103 ng·h/mL and the “DN*AUC0-24” value [2, 19] was 82.2 ng·h/mL. For the same compound, the “DN*AUClast” value [2, 19] was 101 ng·h/mL, the “DN*Cmax” value [2, 19] was 9.70 ng/mL and the “DN* AUC∞” value [2, 20] was 101 ng·h/mL. For the same compound, the “DN*AUC0-24” value [2, 20] was 81.3 ng·h/mL, the “DN*AUClast” value [2, 20] was 100 ng·h/mL and the “DN*Cmax” value [2, 20] was 9.45 ng/mL. For the same compound, the “AUMC∞” value [2, 18] was 4122 h · h · ng/mL, the CL/F [2, 18] was 407 L/h and the MRT [2, 18] was 14.0 h. The T½ term [2, 18] was 11.2 h, the tlast [2, 18] was 65.80 h and the tmax [2, 18] was 2.25 h. For the same compound, the λz [2, 18] was 0.0619 h⁻¹, the “AUMC∞” value [2, 19] was 4297 h · h · ng/mL and the CL/F [2, 19] was 428 L/h. The MRT [2, 19] was 14.3 h, the T½ term [2, 19] was 11.41 h and the tlast [2, 19] was 66.7 h and 66.67 h. The tmax [2, 19] was 2.42 h, the λz [2, 19] was 0.0630 h⁻¹ and the “AUMC∞” value [2, 20] was 3979 h · h · ng/mL. It also gave a CL/F [2, 20] of 395 L/h, an MRT [2, 20] of 13.6 h and a T½ term [2, 20] of 10.74 h. It also gave a tlast [2, 20] of 72.00 h, a tmax [2, 20] of 2.00 h and a λz [2, 20] of 0.0645 h⁻¹. The AUC0-24 [2, 21] was 247 ng·h/mL, the Cmax [2, 21] was 29.1 ng/mL and the AUC0-24 [2, 22] was 53.4 ng·h/mL. The AUClast [2, 22] was 82.7 ng·h/mL, the “AUC∞” value [2, 22] was 89.4 ng·h/mL and the “AUMC∞” value [2, 22] was 2216 h · h · ng/mL. For the same compound, the CL/F [2, 22] was 448 L/h, the Cmax [2, 22] was 3.63 ng/mL and the MRT [2, 22] was 24.8 h. The T½ term [2, 22] was 17.49 h, the tlast [2, 22] was 67.30 h and the tmax [2, 22] was 3.77 h. For the same compound, the λz [2, 22] was 0.0396 h⁻¹, the AUC0-24 [2, 23] was 54.5 ng·h/mL and the AUClast [2, 23] was 85.2 ng·h/mL. The “AUC∞” value [2, 23] was 92.2 ng·h/mL, the “AUMC∞” value [2, 23] was 2416 h · h · ng/mL and the CL/F [2, 23] was 461 L/h. It also gave a Cmax [2, 23] of 3.71 ng/mL, an MRT [2, 23] of 25.4 h and a T½ term [2, 23] of 17.99 h. The tlast [2, 23] was 68.01 h, the tmax [2, 23] was 3.95 h and the λz [2, 23] was 0.0407 h⁻¹. The AUC0-24 [2, 24] was 53.8 ng·h/mL, the AUClast [2, 24] was 82.7 ng·h/mL and the “AUC∞” value [2, 24] was 89.6 ng·h/mL. For the same compound, the “AUMC∞” value [2, 24] was 2177 h · h · ng/mL, the CL/F [2, 24] was 447 L/h and the Cmax [2, 24] was 3.74 ng/mL. For the same compound, the MRT [2, 24] was 24.8 h, the T½ term [2, 24] was 16.61 h and the tlast [2, 24] was 72.00 h. For the same compound, the tmax [2, 24] was 4.00 h and the λz [2, 24] was 0.0417 h⁻¹.
